Measured values as given in patent US11492325B2, “Compounds as inhibitors of sodium channels” (Human BioMolecular Research Institute, priority 2016, dated 2022).
Like-named read-outs stand apart in the source and are kept apart here.

Assays:
[1] = tested on: normal human induced pluripotent stem cell (hiPSC) cardiomyocyte; details: for WT-Fold Prolongation: APD; for WT-Cessation Dose / WT-EC50 (μM) Prolongation: pyridyl derivatives
[2] = tested on: cardiomyocytes derived from hiPSCs from a LQTS3 patient; details: for LQT-IC50 (uM)-Shortening: APD shortening

Row | Molecule | Cessation of Beating ([1]; normal hiPSC cardiomyocytes) | LQT-Cessation Dose ([2]; LQT3 cardiomyocytes) | WT-Fold Prolongation ([1]; normal hiPSC cardiomyocytes) | WT-Prolongation Dose ([1]; normal hiPSC cardiomyocytes) | LQT-Fold Shortening ([2]; LQT3 cardiomyocytes) | LQT-Shortening Dose ([2]; LQT3 cardiomyocytes) | also measured
1 | 2-(2,6-dimethylphenoxy)-1-(4-methoxyphenyl)ethanamine [Compound 14] | None | None | None | None | None | None | LQT-IC50 (uM)-Shortening ([2]; LQT3 cardiomyocytes): None
2 | COc1ccc(C(N)COc2c(C)cccc2C)cc1 (stereo not shown) [Compound 15, 2-(2,6-dimethylphenoxy)-1-(4-methoxyphenyl)ethanamine] | 66 µM | 66 µM | None | None | 1.42 | – | –
3 | Cc1ccc(C(N)COc2c(C)cccc2C)cc1 (stereo not shown) [Compound 17, 2-(2,6-dimethylphenoxy)-1-p-tolylethanamine] | 66 µM | 66 µM | None | None | 1.58 | – | –
4 | c1ccc(CON=C(COc2ccccn2)c2ccccc2)cc1 [Compound 18] | None | None | None | None | None | None | –
5 | NC(COc1ccccn1)c1ccccc1 (stereo not shown) [Compound 20, 1-phenyl-2-(pyridin-2-yloxy)ethanamine] | None | None | None | None | None | None | WT-Cessation Dose [1]: No cessation of beating; WT-EC50 (μM) Prolongation [1]: Does Not Prolong AP; LQT-EC50 (μM) Shortening ([2]; pyridyl derivatives): Does Not Shorten; LQT-Fold Shortening ([2]; pyridyl derivatives): Does Not Shorten; LQT-Shortening Dose ([2]; pyridyl derivatives): Does Not Shorten
6 | Cc1cccc(C)c1OCC(O)C(C)(C)C (stereo not shown) [Compound 22] | – | None | – | – | 1.29 | – | –
7 | Cc1cccc(C)c1OCC(C)NCc1ccccc1 (stereo not shown) [Compound 42, 1-(2,6-dimethylphenoxy)-N-benzylpropan-2-amine] | – | – | 1.684 | – | 1.26 | – | Cessation of Beating ([1]; human, 5 min): 200 µM; LQT-Cessation Dose ([2]; human, 5 min): 133 µM
8 | Cc1cccc(C)c1OCC(=NOCc1ccccc1)C1CC1 [Compound 46] | – | – | None | None | 1.67 | – | Cessation of Beating [1]: None; LQT-Cessation Dose [2]: None
9 | Cc1cccc(C)c1OC[C@H](N)C1CC1.Cl [Compound 61] | – | – | 3.829 | – | None | None | Cessation of Beating [1]: None; WT-EAD Dose ([1]; human, 5 min): 66 µM; LQT-Cessation Dose ([2]; human, 5 min): 200 µM
10 | Cc1ccc(OCC(C)N)c(C)c1.Cl (stereo not shown) [Compound 64] | None | None | 2.621 | – | None | None | WT-EAD Dose ([1]; normal hiPSC cardiomyocytes): 133 µM
11 | Cc1cccc2c1OCC(C1CC1)NC2.Cl (stereo not shown) [Compound 74] | None | None | 2.633 | – | None | None | WT-EAD Dose ([1]; normal hiPSC cardiomyocytes): 133 µM
12 | Cc1ccc(OCC(N)c2ccccc2)cc1C.Cl (stereo not shown) [Compound 75] | 66 µM | 66 µM | None | None | 1.370 | – | –
13 | Cc1cccc(Cl)c1OCC(N)C1CCCCC1.Cl (stereo not shown) [Compound 76] | 66 µM | 66 µM | None | None | 1.244 | – | –
14 | Cc1ccc(OCC(N)C2CC2)cc1C.Cl (stereo not shown) [Compound 77] | 66 µM | 200 µM | None | None | 1.18 | – | –
15 | Cc1cc(OCC(N)c2ccccc2)cc(C)n1.Cl (stereo not shown) [Compound 79] | None | None | 5.06 | – | 1.145 | – | WT-EAD Dose ([1]; normal hiPSC cardiomyocytes): 200 µM
16 | Cc1cccc(OCC(C)N)c1.Cl (stereo not shown) [Compound 86] | None | None | 1.68 | – | 1.418 | – | WT-EAD Dose ([1]; normal hiPSC cardiomyocytes): 66 µM; LQT-IC50 (uM)-Shortening ([2]; LQT3 cardiomyocytes): Shortens
17 | Cc1cc(C)cc(OCC(N)c2ccccc2)c1 (stereo not shown) [Compound 104b] | – | – | – | – | – | – | EC50 ([2]; read-out: LQT-EC50 (μM)-Shortening, 'No AP' wraps to 'No AP shortening'): 0.87 µM

Second part, led by results:

Row | Cessation of Beating ([1]; normal hiPSC cardiomyocytes) | LQT-Cessation Dose ([2]; LQT3 cardiomyocytes) | Molecule | WT-Fold Prolongation ([1]; normal hiPSC cardiomyocytes) | WT-Prolongation Dose ([1]; normal hiPSC cardiomyocytes) | LQT-Fold Shortening ([2]; LQT3 cardiomyocytes) | LQT-Shortening Dose ([2]; LQT3 cardiomyocytes) | also measured
18 | None | 133 µM | CCCNC(COc1cccc(C)c1C)c1ccccc1 (stereo not shown) [Compound 31, 2-(2,3-dimethylphenoxy)-N-propyl-1-phenylethanamine] | None | None | None | None | –
19 | 133 µM | 22 µM | CCNC(COc1cccc(C)c1C)c1ccccc1 (stereo not shown) [Compound 33, 2-(2,3-dimethylphenoxy)-N-ethyl-1-phenylethanamine] | None | None | None | None | –
20 | 133 µM | 66 µM | CNC(COc1cccc(C)c1C)c1ccccc1 (stereo not shown) [Compound 34, 2-(2,3-dimethylphenoxy)-N-methyl-1-phenylethanamine] | None | None | 1.29 | – | –
21 | None | None | Cc1cccc(C)c1OCC(C)O (stereo not shown) [Compound 37] | None | None | None | None | –
22 | 200 µM | 200 µM | CCCNC(C)COc1c(C)cccc1C (stereo not shown) [Compound 38, 1-(2,6-dimethylphenoxy)-N-propylpropan-2-amine] | 4.584 | – | 1.19 | – | WT-EAD Dose ([1]; normal hiPSC cardiomyocytes): 66 µM
23 | None | None | CCNC(C)COc1c(C)cccc1C (stereo not shown) [Compound 41, 1-(2,6-dimethylphenoxy)-N-ethylpropan-2-amine] | 5.338 | – | None | None | WT-EAD Dose ([1]; normal hiPSC cardiomyocytes): 133 µM
24 | None | None | Cc1cccc(C)c1OCC(C)Nc1ccccc1 (stereo not shown) [Compound 43, 1-(2,6-dimethylphenoxy)-N-phenylpropan-2-amine] | None | None | None | None | –
25 | 133 µM | 7.4 µM | Cc1cccc(C)c1OCC(C)NCCc1ccccc1 (stereo not shown) [Compound 44, 1-(2,6-dimethylphenoxy)-N-(2-phenylethyl)propan-2-amine] | 2.698 | – | 1.7 | – | WT-EAD Dose ([1]; normal hiPSC cardiomyocytes): 22 µM
26 | None | None | CC(COC1CCCCC1)=NOCc1ccccc1 [Compound 45] | None | None | 1.37 | – | –
27 | None | None | CC(N)COc1ccccn1 (stereo not shown) [Compound 48, (Pyridin-2-yloxy)propan-2-amine] | None | None | None | None | WT-Cessation Dose [1]: No cessation of beating; WT-EC50 (μM) Prolongation [1]: Does Not Prolong AP; LQT-EC50 (μM) Shortening ([2]; pyridyl derivatives): Does Not Shorten; LQT-Fold Shortening ([2]; pyridyl derivatives): Does Not Shorten; LQT-Shortening Dose ([2]; pyridyl derivatives): Does Not Shorten
28 | None | None | CC(N)COc1ccccc1C(F)(F)F (stereo not shown) [Compound 51, 1-(2-(Trifluoromethyl)phenoxy)propan-2-amine] | None | None | 1.37 | – | –
29 | None | None | COc1ccccc1OCC(C)N (stereo not shown) [Compound 52, 1-(2-Methoxyphenoxy)propan-2-amine] | 2.499 | – | None | None | WT-EAD Dose ([1]; normal hiPSC cardiomyocytes): 133 µM
30 | None | None | CC(=O)NC(C)COc1c(C)cccc1C (stereo not shown) [Compound 53] | None | None | None | None | –
31 | None | None | C[C@@H](N)COc1ccccc1Cl [Compound 58] | 2.392 | – | None | None | WT-EAD Dose ([1]; normal hiPSC cardiomyocytes): 200 µM
32 | None | None | C[C@H](N)COc1ccccc1Cl [Compound 59] | 2.832 | – | None | None | WT-EAD Dose ([1]; normal hiPSC cardiomyocytes): 133 µM
33 | 66 µM | 66 µM | Cc1cc(C)cc(OCC(NCCO)c2ccccc2)c1 (stereo not shown) [Compound 92] | None | None | 1.41 | – | –
34 | 66 µM | 22 µM | OCCNC(COc1cc(C(F)(F)F)cc(C(F)(F)F)c1)c1ccccc1 (stereo not shown) [Compound 93] | None | None | 1.5 | – | –
